Legend:
E. coli = assay: Combination therapy: Fradiomycin with PDEA, visible growth; type: cell-based; settings: no PDEA
Protocol: (§1) Different concentrations of Fradiomycin in Mueller Hinton were prepared in 3 different concentrations of PDEA. E. coli and S. aureus were inoculated (10^5) and were incubated overnight. Readouts were “Clear” and “Foggy”.

S. aureus = assay: as above; type: cell-based; settings: no PDEA
Protocol: as §1

NC[C@@H]1O[C@H](O[C@H]2[C@@H](O)[C@H](O[C@@H]3[C@@H](O)[C@H](N)C[C@H](N)[C@H]3O[C@H]3O[C@H](CN)[C@@H](O)[C@H](O)[C@H]3N)O[C@@H]2CO)[C@H](N)[C@@H](O)[C@@H]1O [Fradiomycin]
visible growth readout (E. coli; Fradiomycin 0.0156 μg/ml): Foggy
visible growth readout (E. coli; Fradiomycin 0.03125 μg/ml): Foggy
visible growth readout (E. coli; Fradiomycin 0.0625 μg/ml): Foggy
visible growth readout (E. coli; Fradiomycin 0.125 μg/ml): Foggy
visible growth readout (E. coli; Fradiomycin 0.25 μg/ml): Foggy
visible growth readout (E. coli; Fradiomycin 0.5 μg/ml): Foggy
visible growth readout (E. coli; Fradiomycin 2 μg/ml): Clear
visible growth readout (E. coli; Fradiomycin 4 μg/ml): Clear
visible growth readout (E. coli; Fradiomycin 8 μg/ml): Clear
visible growth readout (E. coli; Fradiomycin 16 μg/ml): Clear
visible growth readout (E. coli; Fradiomycin 32 μg/ml): Clear
visible growth readout (E. coli; Fradiomycin 64 μg/ml): Clear
visible growth readout (E. coli; Fradiomycin 128 μg/ml): Clear
visible growth readout (E. coli; Fradiomycin 256 μg/ml): Clear
visible growth readout (S. aureus; Fradiomycin 0.0156 μg/ml): Foggy
visible growth readout (S. aureus; Fradiomycin 0.03125 μg/ml): Foggy
visible growth readout (S. aureus; Fradiomycin 0.0625 μg/ml): Foggy
visible growth readout (S. aureus; Fradiomycin 0.125 μg/ml): Foggy
visible growth readout (S. aureus; Fradiomycin 0.25 μg/ml): Foggy
visible growth readout (S. aureus; Fradiomycin 0.5 μg/ml): Foggy
visible growth readout (S. aureus; Fradiomycin 1 μg/ml): Clear
visible growth readout (S. aureus; Fradiomycin 2 μg/ml): Clear
visible growth readout (S. aureus; Fradiomycin 4 μg/ml): Clear
visible growth readout (S. aureus; Fradiomycin 8 μg/ml): Clear
visible growth readout (S. aureus; Fradiomycin 16 μg/ml): Clear
visible growth readout (S. aureus; Fradiomycin 32 μg/ml): Clear
visible growth readout (S. aureus; Fradiomycin 64 μg/ml): Clear
visible growth readout (S. aureus; Fradiomycin 128 μg/ml): Clear
visible growth readout (S. aureus; Fradiomycin 256 μg/ml): Clear

From patent publication US20250339415A1, “DISULFIDE COMPOUNDS AS MEDICAMENTS” (CYTACOAT AB, priority 2021, published 2025)
